Measured values: article PMC11823609, “Advancements in the fight against globally distributed OXA-48 carbapenemase: evaluating the new generation of carbapenemase inhibitors” (Antimicrobial Agents and Chemotherapy, 2025)
≈ marks a conversion by molar mass, not a printed value. Read-outs that look alike come from different tables or passages of the source.

Tests used:
Test in all cases: microbe, parasite or virus in culture
[1] = system: E. coli TG1 (OXA-48); format: cell-based, Escherichia coli
Procedure, shortened: (§1)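 Against isogenic E. coli expressing OXA-48, or OXA-48 with CTX-M-14, in TG1 or the low-permeability HB4 background, MICs were measured in triplicate. Inhibitors at 4 mg/L were given with ertapenem or ceftazidime. EUCAST 13.0 criteria were applied.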

[2] = system: E. coli HB4 ΔompC/F (CTX-M-14 + OXA-48); format: cell-based, Escherichia coli
Procedure, shortened: as §1

[3] = system: E. coli HB4 ΔompC/F (OXA-48); format: cell-based, Escherichia coli
Procedure, shortened: as §1

[4] = system: E. coli HB4 ΔompC/F; format: cell-based, Escherichia coli
Procedure, shortened: as §1

[5] = system: E. cloacae strain 231 (MLST 171, No ESBL); format: cell-based
Procedure, shortened: (§2)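 Read-out is the MIC from triplicate determinations, interpreted against EUCAST 13.0 breakpoints. Clinical OXA-48 producers, sequenced by WGS, were exposed to ertapenem or ceftazidime plus 4 mg/L inhibitor.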

[6] = system: E. cloacae strain 235 (MLST 171, ESBL); format: cell-based
Procedure, shortened: as §2

[7] = system: E. cloacae strain 272 (MLST 78, ESBL); format: cell-based
Procedure, shortened: as §2

[8] = system: E. cloacae strain 281 (MLST 78, No ESBL); format: cell-based
Procedure, shortened: as §2

[9] = system: E. coli strain 103 (MLST 10, ESBL); format: cell-based
Procedure, shortened: as §2

[10] = system: E. coli strain 177 (MLST 131, ESBL); format: cell-based
Procedure, shortened: as §2

[11] = system: E. coli strain 224 (MLST 127, No ESBL); format: cell-based; settings: E. coli 224
Procedure, shortened: as §2

[12] = system: E. coli strain 264 (MLST 131, No ESBL); format: cell-based; settings: E. coli 264
Procedure, shortened: as §2

[13] = system: K. pneumoniae strain 125 (MLST 307, ESBL); format: cell-based
Procedure, shortened: as §2

[14] = system: K. pneumoniae strain 170 (MLST 307, No ESBL); format: cell-based; settings: K. pneumoniae 170
Procedure, shortened: as §2

[15] = system: K. pneumoniae strain 19 (MLST 11, ESBL); format: cell-based
Procedure, shortened: as §2

[16] = system: K. pneumoniae strain 194 (MLST 392, No ESBL); format: cell-based; settings: K. pneumoniae 194
Procedure, shortened: as §2

[17] = system: K. pneumoniae strain 23 (MLST 392, ESBL); format: cell-based
Procedure, shortened: as §2

[18] = system: K. pneumoniae strain 237 (MLST 147, No ESBL); format: cell-based; settings: K. pneumoniae 237
Procedure, shortened: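 MICs in triplicate against OXA-48-positive Enterobacterales clinical isolates, interpreted by EUCAST 13.0 breakpoints. Inhibitors at 4 mg/L combined with ertapenem or ceftazidime as reporter substrates; MICs of each compound alone also determined.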

[19] = system: K. pneumoniae strain 238 (MLST 15, ESBL); format: cell-based
Procedure, shortened: as §2

[20] = system: K. pneumoniae strain 413 (MLST 147, ESBL); format: cell-based
Procedure, shortened: as §2

[21] = system: K. pneumoniae strain 497 (MLST 11, No ESBL); format: cell-based; settings: K. pneumoniae 497
[22] = system: K. pneumoniae strain 71 (MLST 15, No ESBL); format: cell-based; settings: K. pneumoniae 71
Procedure, shortened: as §2

[23] = Escherichia coli, β-lactamase inhibitor alone, read-out: MIC
[24] = Klebsiella pneumoniae, β-lactamase inhibitor alone, read-out: MIC
[25] = ceftazidime alone or with BLI at 4 mg/L
[26] = Escherichia coli, BL alone or BL/BLI: AVI, REL, TAN, DUR 4 mg/L, VAB, XER 8 mg/L, ZID, NAC 1:1, read-out: MIC
[27] = Klebsiella pneumoniae, BL alone or BL/BLI: AVI, REL, TAN, DUR 4 mg/L, VAB, XER 8 mg/L, ZID, NAC 1:1, read-out: MIC
[28] = Enterobacter cloacae, E. cloacae 231, β-lactamase inhibitor alone, read-out: MIC
[29] = Enterobacter cloacae, E. cloacae 281, β-lactamase inhibitor alone, read-out: MIC

## NCCN[C@H]1CC[C@H](CC(=O)N[C@H]2Cc3cccc(C(=O)O)c3OB2O)CC1 [Taniborbactam, taniborbactam]
[1]; Escherichia coli
  MIC: ≥ 128 µg/mL
[2]; E. coli HB4 coproducing CTX-M-14 and OXA-48, BLI 4 mg/L
  decrease of ertapenem MIC with BLI: 8 fold
[2]; Escherichia coli
  MIC: ≥ 128 µg/mL
[3]; Escherichia coli
  MIC: ≥ 128 µg/mL
[4]; Escherichia coli
  MIC: ≥ 128 µg/mL
[5]; Enterobacter cloacae
  MIC: ≥ 128 µg/mL
[6]; Enterobacter cloacae
  MIC: ≥ 128 µg/mL
[7]; Enterobacter cloacae
  MIC: ≥ 128 µg/mL
[8]; Enterobacter cloacae
  MIC: ≥ 128 µg/mL
[9]; Escherichia coli
  MIC: ≥ 128 µg/mL
[10]; Escherichia coli
  MIC: ≥ 128 µg/mL
[11]; [23]
  MIC: ≥ 128 µg/mL
[12]; [23]
  MIC: ≥ 128 µg/mL
[13]; Klebsiella pneumoniae
  MIC: ≥ 128 µg/mL
[14]; [24]
  MIC: ≥ 128 µg/mL
[15]; Klebsiella pneumoniae
  MIC: ≥ 128 µg/mL
[16]; [24]
  MIC: ≥ 128 µg/mL
[17]; Klebsiella pneumoniae
  MIC: ≥ 128 µg/mL
[18]; [24]
  MIC: ≥ 128 µg/mL
[19]; Klebsiella pneumoniae
  MIC: ≥ 128 µg/mL
[20]; Klebsiella pneumoniae
  MIC: ≥ 128 µg/mL
[21]; [24]
  MIC: ≥ 128 µg/mL
[22]; [24]
  MIC: ≥ 128 µg/mL

## CC(C)(O/N=C(\C(=O)N[C@@H]1C(=O)N2C(C(=O)[O-])=C(C[n+]3ccccc3)CS[C@H]12)c1csc(N)n1)C(=O)O [CAZ, ceftazidime]
[1]; E. coli TG1 (OXA-48), ceftazidime alone or with BLI at 4 mg/L
  MIC: 0.25 µg/mL (≈ 0.457 µM)
[1]; Escherichia coli
  MIC: 0.25 µg/mL (≈ 0.457 µM)
[2]; E. coli HB4 ΔompC/F (CTX-M-14 + OXA-48), ceftazidime alone or with BLI at 4 mg/L
  MIC: 16 µg/mL
[2]; Escherichia coli
  MIC: 16 µg/mL (≈ 29.3 µM)
[3]; E. coli HB4 ΔompC/F (OXA-48), ceftazidime alone or with BLI at 4 mg/L
  MIC: 1 µg/mL (≈ 1.83 µM)
[3]; Escherichia coli
  MIC: 1 µg/mL (≈ 1.83 µM)
[4]; E. coli HB4 ΔompC/F, ceftazidime alone or with BLI at 4 mg/L
  MIC: 1 µg/mL (≈ 1.83 µM)
[4]; Escherichia coli
  MIC: 1 µg/mL (≈ 1.83 µM)
[5]; E. cloacae 231, ceftazidime alone or with BLI at 4 mg/L
  MIC: 1 µg/mL
[5]; Enterobacter cloacae, E. cloacae 231, BL alone or BL/BLI: AVI, REL, TAN, DUR 4 mg/L, VAB, XER 8 mg/L, ZID, NAC 1:1, read-out: MIC
  MIC: 1 µg/mL
[6]; E. cloacae 235, ceftazidime alone or with BLI at 4 mg/L
  MIC: 128 µg/mL
[6]; Enterobacter cloacae
  MIC: 128 µg/mL
[7]; E. cloacae 272, ceftazidime alone or with BLI at 4 mg/L
  MIC: ≥256 µg/mL
[7]; Enterobacter cloacae
  MIC: ≥ 256 µg/mL
[8]; E. cloacae 281, ceftazidime alone or with BLI at 4 mg/L
  MIC: 0.5 µg/mL
[8]; Enterobacter cloacae, E. cloacae 281, BL alone or BL/BLI: AVI, REL, TAN, DUR 4 mg/L, VAB, XER 8 mg/L, ZID, NAC 1:1, read-out: MIC
  MIC: 0.5 µg/mL
[9]; E. coli 103, ceftazidime alone or with BLI at 4 mg/L
  MIC: 4 µg/mL
[9]; Escherichia coli
  MIC: 4 µg/mL
[10]; E. coli 177, ceftazidime alone or with BLI at 4 mg/L
  MIC: 128 µg/mL
[10]; Escherichia coli
  MIC: 128 µg/mL
[11]; [25]
  MIC: 0.25 µg/mL
[11]; [26]
  MIC: 0.25 µg/mL
[12]; [25]
  MIC: 0.25 µg/mL
[12]; [26]
  MIC: 0.25 µg/mL
[13]; K. pneumoniae 125, ceftazidime alone or with BLI at 4 mg/L
  MIC: 64 µg/mL
[13]; Klebsiella pneumoniae
  MIC: 64 µg/mL
[14]; [25]
  MIC: 0.5 µg/mL
[14]; [27]
  MIC: 0.5 µg/mL
[15]; K. pneumoniae 19, ceftazidime alone or with BLI at 4 mg/L
  MIC: 32 µg/mL
[15]; Klebsiella pneumoniae
  MIC: 32 µg/mL
[16]; [25]
  MIC: 0.5 µg/mL
[16]; [27]
  MIC: 0.5 µg/mL
[17]; K. pneumoniae 23, ceftazidime alone or with BLI at 4 mg/L
  MIC: 128 µg/mL
[17]; Klebsiella pneumoniae
  MIC: 128 µg/mL
[18]; [25]
  MIC: 0.25 µg/mL
[18]; [27]
  MIC: 0.25 µg/mL
[19]; K. pneumoniae 238, ceftazidime alone or with BLI at 4 mg/L
  MIC: 32 µg/mL
[19]; Klebsiella pneumoniae
  MIC: 32 µg/mL
[20]; K. pneumoniae 413, ceftazidime alone or with BLI at 4 mg/L
  MIC: 32 µg/mL
[20]; Klebsiella pneumoniae
  MIC: 32 µg/mL
[21]; [25]
  MIC: 0.5 µg/mL
[21]; [27]
  MIC: 0.5 µg/mL
[22]; [25]
  MIC: 0.5 µg/mL
[22]; [27]
  MIC: 0.5 µg/mL

## NCCONC(=O)[C@@H]1CC[C@@H]2CN1C(=O)N2OS(=O)(=O)O [Nacubactam, nacubactam]
[1]; Escherichia coli
  MIC: 2 µg/mL (≈ 6.17 µM)
[2]; Escherichia coli
  MIC: 2 µg/mL (≈ 6.17 µM)
[3]; Escherichia coli
  MIC: 2 µg/mL (≈ 6.17 µM)
[4]; Escherichia coli
  MIC: 2 µg/mL (≈ 6.17 µM)
[5]; [28]
  MIC: 1 µg/mL
[6]; Enterobacter cloacae
  MIC: 8 µg/mL
[7]; Enterobacter cloacae
  MIC: 4 µg/mL
[8]; [29]
  MIC: 4 µg/mL
[9]; Escherichia coli
  MIC: 2 µg/mL
[10]; Escherichia coli
  MIC: 8 µg/mL
[11]; [23]
  MIC: 8 µg/mL
[12]; [23]
  MIC: 1 µg/mL
[13]; Klebsiella pneumoniae
  MIC: ≥ 128 µg/mL
[14]; [24]
  MIC: 4 µg/mL
[15]; Klebsiella pneumoniae
  MIC: ≥ 128 µg/mL
[16]; [24]
  MIC: 2 µg/mL
[17]; Klebsiella pneumoniae
  MIC: 2 µg/mL
[18]; [24]
  MIC: 1 µg/mL
[19]; Klebsiella pneumoniae
  MIC: 16 µg/mL
[20]; Klebsiella pneumoniae
  MIC: ≥ 128 µg/mL
[21]; [24]
  MIC: ≥ 128 µg/mL
[22]; [24]
  MIC: 16 µg/mL

## CC1=C[C@@H]2CN(C(=O)N2OS(=O)(=O)O)[C@@H]1C(N)=O [Durlobactam, durlobactam]
[1]; Escherichia coli
  MIC: 0.12 µg/mL (≈ 0.433 µM)
[2]; Escherichia coli
  MIC: 1 µg/mL (≈ 3.61 µM)
[3]; Escherichia coli
  MIC: 1 µg/mL (≈ 3.61 µM)
[4]; Escherichia coli
  MIC: 0.5 µg/mL (≈ 1.8 µM)
[5]; [28]
  MIC: 1 µg/mL
[6]; Enterobacter cloacae
  MIC: 4 µg/mL
[7]; Enterobacter cloacae
  MIC: 1 µg/mL
[8]; [29]
  MIC: 4 µg/mL
[9]; Escherichia coli
  MIC: 0.25 µg/mL
[10]; Escherichia coli
  MIC: 2 µg/mL
[11]; [23]
  MIC: 0.25 µg/mL
[12]; [23]
  MIC: 0.25 µg/mL
[13]; Klebsiella pneumoniae
  MIC: 2 µg/mL
[14]; [24]
  MIC: 0.5 µg/mL
[15]; Klebsiella pneumoniae
  MIC: 2 µg/mL
[16]; [24]
  MIC: 1 µg/mL
[17]; Klebsiella pneumoniae
  MIC: 0.5 µg/mL
[18]; [24]
  MIC: 0.5 µg/mL
[19]; Klebsiella pneumoniae
  MIC: 0.5 µg/mL
[20]; Klebsiella pneumoniae
  MIC: 4 µg/mL
[21]; [24]
  MIC: 2 µg/mL
[22]; [24]
  MIC: 2 µg/mL
